system: HCV 1b-Con1 replicon; assay: HCV 1b-Con1 replicon assay in the presence of 5% FBS; assay type: cell-based; conditions: Hepatitis C virus

SMILES | EC50
COC(=O)N[C@H](C(=O)N1CCC[C@H]1c1nc2cc([C@H]3CC[C@H](c4ccc5[nH]c([C@@H]6CCCN6C(=O)[C@@H](NC(=O)OC)C6CCOCC6)nc5c4)N3c3cc(F)c(N4CCC(C)(C)CC4)c(F)c3)ccc2[nH]1)C1CCOCC1 [Example 4.23, dimethyl ({(2R,5R)-1-[4-(4,4-dimethylpiperidin-1-yl)-3,5-difluorophenyl]pyrrolidine-2,5-diyl}bis{1H-benzimidazole-5,2-diyl(2S)pyrrolidine-2,1-diyl[(1S)-2-oxo-1-(tetrahydro-2H-pyran-4-yl)ethane-2,1-diyl]})biscarbamate] | < 0.1 nM
COC(=O)N[C@H](C(=O)N1CCC[C@H]1c1nc2cc([C@H]3CC[C@H](c4cc5nc([C@@H]6CCCN6C(=O)[C@@H](NC(=O)OC)[C@@H](C)OC)[nH]c5cc4F)N3c3cc(F)c(N4CCC(c5ccc(F)cc5)CC4)c(F)c3)c(F)cc2[nH]1)[C@@H](C)OC [Example 3.52, methyl {(2S,3R)-1-[(2S)-2-{5-[(2R,5R)-1-{3,5-difluoro-4-[4-(4-fluorophenyl)piperidin-1-yl]phenyl}-5-(6-fluoro-2-{(2S)-1-[N-(methoxycarbonyl)-O-methyl-L-threonyl]pyrrolidin-2-yl}-1H-benzimidazol-5-yl)pyrrolidin-2-yl]-6-fluoro-1H-benzimidazol-2-yl}pyrrolidin-1-yl]-3-methoxy-1-oxobutan-2-yl}carbamate] | < 0.1 nM
COC(=O)N[C@H](C(=O)N1CCC[C@H]1c1nc2cc([C@H]3CC[C@H](c4ccc5[nH]c([C@@H]6CCCN6C(=O)[C@@H](NC(=O)OC)C(C)C)nc5c4)N3c3ccc(N4CCCCC4=O)cc3)ccc2[nH]1)C(C)C [Example 1.2, methyl {(2S)-1-[(2S)-2-(5-{(2R,5R)-5-{2-[(2S)-1-{(2S)-2-[(methoxycarbonyl)amino]-3-methylbutanoyl}pyrrolidin-2-yl]-1H-benzimidazol-5-yl}-1-[4-(2-oxopiperidin-1-yl)phenyl]pyrrolidin-2-yl}-1H-benzimidazol-2-yl)pyrrolidin-1-yl]-3-methyl-1-oxobutan-2-yl}carbamate] | > 10 nM
COC(=O)N[C@H](C(=O)N1CCC[C@H]1c1nc2cc([C@H]3CC[C@H](c4cc5nc([C@@H]6CCCN6C(=O)[C@@H](NC(=O)OC)C(C)C)[nH]c5cc4F)N3c3cc(F)c(N4CCN(c5ccc(C(F)(F)F)cc5)CC4)c(F)c3)c(F)cc2[nH]1)C(C)C [Example 4.42, methyl {(2S)-1-[(2S)-2-{5-[(2R,5R)-1-(3,5-difluoro-4-{4-[4-(trifluoromethyl)phenyl]piperazin-1-yl}phenyl)-5-{6-fluoro-2-[(2S)-1-{(2S)-2-[(methoxycarbonyl)amino]-3-methylbutanoyl}pyrrolidin-2-yl]-1H-benzimidazol-5-yl}pyrrolidin-2-yl]-6-fluoro-1H-benzimidazol-2-yl}pyrrolidin-1-yl]-3-methyl-1-oxobutan-2-yl}carbamate] | < 0.1 nM
COCCOc1ccc(N2[C@@H](c3ccc4[nH]c([C@@H]5CCCN5C(=O)[C@@H](NC(=O)OC)C(C)C)nc4c3)CC[C@@H]2c2ccc3[nH]c([C@@H]4CCCN4C(=O)[C@@H](NC(=O)OC)C(C)C)nc3c2)cc1 [Example 3.3, methyl {(2S)-1-[(2S)-2-(5-{(2R,5R)-5-{2-[(2S)-1-{(2S)-2-[(methoxycarbonyl)amino]-3-methylbutanoyl}pyrrolidin-2-yl]-1H-benzimidazol-5-yl}-1-[4-(2-methoxyethoxy)phenyl]pyrrolidin-2-yl}-1H-benzimidazol-2-yl)pyrrolidin-1-yl]-3-methyl-1-oxobutan-2-yl}carbamate] | 0.1 to 1 nM
COC(=O)N[C@H](C(=O)N1CCC[C@H]1c1nc2cc([C@@H]3CC[C@@H](c4ccc5[nH]c([C@@H]6CCCN6C(=O)[C@@H](NC(=O)OC)[C@@H](C)OC)nc5c4)N3c3ccc(N4CCCCC4)c(F)c3)ccc2[nH]1)[C@@H](C)OC [Example 3.16, methyl {(2S,3R)-1-[(2S)-2-{5-[(2S,5S)-1-[3-fluoro-4-(piperidin-1-yl)phenyl]-5-(2-{(2S)-1-[N-(methoxycarbonyl)-O-methyl-L-threonyl]pyrrolidin-2-yl}-1H-benzimidazol-5-yl)pyrrolidin-2-yl]-1H-benzimidazol-2-yl}pyrrolidin-1-yl]-3-methoxy-1-oxobutan-2-yl}carbamate] | 0.1 to 1 nM
COC(=O)N[C@H](C(=O)N1CCC[C@H]1c1nc2c(Cl)c([C@H]3CC[C@@H](c4ccc5[nH]c([C@@H]6CCCN6C(=O)[C@@H](NC(=O)OC)C(C)C)nc5c4Cl)N3c3ccc(C(C)(C)C)cc3)ccc2[nH]1)C(C)C [Example 6.6, methyl {(2S)-1-[(2S)-2-{5-[(2R,5S)-1-(4-tert-butylphenyl)-5-{4-chloro-2-[(2S)-1-{(2S)-2-[(methoxycarbonyl)amino]-3-methylbutanoyl}pyrrolidin-2-yl]-1H-benzimidazol-5-yl}pyrrolidin-2-yl]-4-chloro-1H-benzimidazol-2-yl}pyrrolidin-1-yl]-3-methyl-1-oxobutan-2-yl}carbamate] | < 0.1 nM
COC(=O)N[C@H](C(=O)N1CCC[C@H]1c1nc2cc([C@H]3CC[C@H](c4ccc5[nH]c([C@@H]6CCCN6C(=O)[C@@H](NC(=O)OC)C6Cc7ccccc7C6)nc5c4)N3c3cc(F)c(N4CCC(c5ccccc5)CC4)c(F)c3)ccc2[nH]1)C1Cc2ccccc2C1 [Example 3.27, dimethyl ({(2R,5R)-1-[3,5-difluoro-4-(4-phenylpiperidin-1-yl)phenyl]pyrrolidine-2,5-diyl}bis{1H-benzimidazole-5,2-diyl(2S)pyrrolidine-2,1-diyl[(1S)-1-(2,3-dihydro-1H-inden-2-yl)-2-oxoethane-2,1-diyl]})biscarbamate] | < 0.1 nM
COC(=O)N[C@H](C(=O)N1CCC[C@H]1c1nc2ccc([C@H]3CC[C@H](c4ccc5nc([C@@H]6CCCN6C(=O)[C@@H](NC(=O)OC)C(C)C)[nH]c5c4)N3c3cc(F)c(N4CCC(Cc5ccccc5)CC4)c(F)c3)cc2[nH]1)C(C)C [Example 4.47, methyl {(2S)-1-[(2S)-2-{6-[(2R,5R)-1-[4-(4-benzylpiperidin-1-yl)-3,5-difluorophenyl]-5-{2-[(2S)-1-{(2S)-2-[(methoxycarbonyl)amino]-3-methylbutanoyl}pyrrolidin-2-yl]-1H-benzimidazol-6-yl}pyrrolidin-2-yl]-1H-benzimidazol-2-yl}pyrrolidin-1-yl]-3-methyl-1-oxobutan-2-yl}carbamate] | < 0.1 nM
COC(=O)N[C@H](C(=O)N1CCC[C@H]1c1nc2c(C)c([C@H]3CC[C@@H](c4ccc5[nH]c([C@@H]6CCCN6C(=O)[C@@H](NC(=O)OC)C(C)C)nc5c4C)N3c3ccc(C(C)(C)C)cc3)ccc2[nH]1)C(C)C [Example 6.8, methyl {(2S)-1-[(2S)-2-{5-[(2R,5S)-1-(4-tert-butylphenyl)-5-{2-[(2S)-1-{(2S)-2-[(methoxycarbonyl)amino]-3-methylbutanoyl}pyrrolidin-2-yl]-4-methyl-1H-benzimidazol-5-yl}pyrrolidin-2-yl]-4-methyl-1H-benzimidazol-2-yl}pyrrolidin-1-yl]-3-methyl-1-oxobutan-2-yl}carbamate] | < 0.1 nM

Reference: patent US20120220562A1, “Anti-Viral Compounds” (ABBOTT LABAORATORIES, priority 2011, published 2012)
